Results reported in ChEMBL document CHEMBL4477234, “Potent Suppressive Effects of 1-Piperidinylimidazole Based Novel P2X7 Receptor Antagonists on Cancer Cell Migration and Invasion” (J Med Chem, 2016).
Activity calls are given as the source filed them. The calls are words filed in the database; no cut-off is given here.

Legend:
P2X purinoceptor 7 [1] = target: T1, P2X purinoceptor 7 (Homo sapiens, UniProt Q99572); assay: Antagonist activity at human P2X7 receptor
T1 sequence (Q99572 whole entry): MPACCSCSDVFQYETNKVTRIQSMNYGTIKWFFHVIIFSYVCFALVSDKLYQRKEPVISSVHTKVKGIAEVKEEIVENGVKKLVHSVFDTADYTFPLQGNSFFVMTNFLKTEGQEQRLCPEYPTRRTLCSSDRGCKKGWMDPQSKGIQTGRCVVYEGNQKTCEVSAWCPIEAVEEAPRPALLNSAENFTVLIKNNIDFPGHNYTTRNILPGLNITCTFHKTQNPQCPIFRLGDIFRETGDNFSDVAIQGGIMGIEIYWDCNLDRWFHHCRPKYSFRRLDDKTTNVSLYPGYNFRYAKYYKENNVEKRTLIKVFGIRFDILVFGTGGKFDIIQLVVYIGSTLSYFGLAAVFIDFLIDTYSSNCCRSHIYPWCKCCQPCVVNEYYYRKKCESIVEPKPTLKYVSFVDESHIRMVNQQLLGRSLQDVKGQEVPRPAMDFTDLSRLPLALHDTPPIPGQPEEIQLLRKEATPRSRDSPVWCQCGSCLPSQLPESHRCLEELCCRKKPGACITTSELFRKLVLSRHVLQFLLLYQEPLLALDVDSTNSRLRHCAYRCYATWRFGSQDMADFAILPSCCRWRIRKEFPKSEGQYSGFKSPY

P2X purinoceptor 7 [2] = target: T1, P2X purinoceptor 7; assay: Antagonist activity at human P2X7 receptor in LPS/IFN-gamma-differentiated human THP-1 cells assessed as suppression of BzATP-stimulated IL-1beta release per-incubated for 30 mins before BzATP addition and measured after 30 mins by ELISA; format: cell-based
MDA-MB-231 [3] = assay: Antiinvasive activity against human MDA-MB-231 cells measured after 48 hrs by transwell invasion assay; format: functional, cell-based; conditions: MDA-MB-231, 48 h
MDA-MB-231 [4] = assay: Antimigratory activity against human MDA-MB-231 cells xenografted in zebrafish assessed as inhibition of cell dissemination and invasion at 10 uM measured after 4 days by fluorescence microscopic analysis relative to control; format: functional, cell-based
[5] = target: T2, P2X purinoceptor 3 (Homo sapiens) (UniProt P56373); assay: Antagonist activity at human P2X3 receptor expressed in human 1321N1 cells assessed as inhibition of ATP-induced calcium influx at 1 uM preincubated for 30 mins prior to ATP-stimulation by calcium influx assay; format: cell-based
T2 sequence (whole entry): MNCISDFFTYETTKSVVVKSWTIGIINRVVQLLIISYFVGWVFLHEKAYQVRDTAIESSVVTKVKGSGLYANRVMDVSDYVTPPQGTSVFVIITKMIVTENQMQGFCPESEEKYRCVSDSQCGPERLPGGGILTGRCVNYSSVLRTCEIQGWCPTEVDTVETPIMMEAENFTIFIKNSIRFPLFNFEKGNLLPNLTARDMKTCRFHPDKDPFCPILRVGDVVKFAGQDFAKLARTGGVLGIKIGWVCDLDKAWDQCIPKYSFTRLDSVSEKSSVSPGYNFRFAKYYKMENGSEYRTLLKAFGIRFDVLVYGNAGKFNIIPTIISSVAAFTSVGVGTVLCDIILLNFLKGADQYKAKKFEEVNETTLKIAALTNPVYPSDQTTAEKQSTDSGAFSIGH

[6] = target: T3, P2X purinoceptor 2 (Homo sapiens) (UniProt Q9UBL9); assay: Antagonist activity at human P2X2 receptor expressed in human 1321N1 cells assessed as inhibition of ATP-induced calcium influx at 1 uM preincubated for 30 mins prior to ATP-stimulation by calcium influx assay; format: cell-based
T3 sequence (whole entry): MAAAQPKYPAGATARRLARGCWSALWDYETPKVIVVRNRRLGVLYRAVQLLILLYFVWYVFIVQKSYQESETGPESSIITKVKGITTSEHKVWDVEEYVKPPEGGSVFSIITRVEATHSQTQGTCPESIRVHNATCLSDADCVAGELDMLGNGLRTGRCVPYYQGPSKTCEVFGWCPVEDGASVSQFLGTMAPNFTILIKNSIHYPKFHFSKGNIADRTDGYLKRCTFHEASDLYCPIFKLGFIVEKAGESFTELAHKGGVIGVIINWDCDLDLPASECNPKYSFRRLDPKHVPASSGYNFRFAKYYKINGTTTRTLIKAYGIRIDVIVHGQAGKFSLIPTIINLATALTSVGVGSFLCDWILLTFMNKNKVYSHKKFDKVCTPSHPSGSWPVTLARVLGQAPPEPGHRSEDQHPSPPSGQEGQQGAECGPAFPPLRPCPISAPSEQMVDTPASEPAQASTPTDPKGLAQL

[7] = target: T4, P2X purinoceptor 4 (Homo sapiens) (UniProt Q99571); assay: Antagonist activity at human P2X4 receptor expressed in human 1321N1 cells assessed as inhibition of ATP-induced calcium influx at 1 uM preincubated for 30 mins prior to ATP-stimulation by calcium influx assay; format: cell-based
T4 sequence (whole entry): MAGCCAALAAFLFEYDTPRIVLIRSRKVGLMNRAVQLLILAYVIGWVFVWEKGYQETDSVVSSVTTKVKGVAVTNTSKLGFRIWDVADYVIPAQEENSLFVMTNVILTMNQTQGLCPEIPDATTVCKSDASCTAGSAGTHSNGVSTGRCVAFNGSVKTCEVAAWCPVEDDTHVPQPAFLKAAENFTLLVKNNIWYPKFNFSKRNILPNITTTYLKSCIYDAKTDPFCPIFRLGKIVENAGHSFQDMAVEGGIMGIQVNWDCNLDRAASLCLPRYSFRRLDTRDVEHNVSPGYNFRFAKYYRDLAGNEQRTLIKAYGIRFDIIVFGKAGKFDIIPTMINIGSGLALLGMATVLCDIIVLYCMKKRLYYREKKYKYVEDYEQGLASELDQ

[8] = target: T5, P2X purinoceptor 1 (Homo sapiens) (UniProt P51575); assay: Antagonist activity at human P2X1 receptor expressed in human 1321N1 cells assessed as inhibition of ATP-induced calcium influx at 1 uM preincubated for 30 mins prior to ATP-stimulation by calcium influx assay; format: cell-based
T5 sequence (whole entry): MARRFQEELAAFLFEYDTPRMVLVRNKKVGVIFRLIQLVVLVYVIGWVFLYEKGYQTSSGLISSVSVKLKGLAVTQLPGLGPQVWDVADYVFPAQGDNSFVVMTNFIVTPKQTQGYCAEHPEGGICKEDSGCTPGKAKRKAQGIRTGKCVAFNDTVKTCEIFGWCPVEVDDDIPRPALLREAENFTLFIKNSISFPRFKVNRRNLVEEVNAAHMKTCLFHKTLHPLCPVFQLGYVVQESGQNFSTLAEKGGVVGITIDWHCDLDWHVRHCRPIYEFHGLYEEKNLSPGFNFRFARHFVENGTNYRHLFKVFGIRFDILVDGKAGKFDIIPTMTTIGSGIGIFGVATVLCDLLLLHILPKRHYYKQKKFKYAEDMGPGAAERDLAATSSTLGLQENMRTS

P2X purinoceptor 7 [9] = target: T1, P2X purinoceptor 7; assay: Antagonist activity at human P2X7 receptor expressed in HEK293 cells assessed as inhibition of BzATP-induced EtBr uptake measured after 2 hrs by fluorescence analysis; format: cell-based
P2X purinoceptor 3 = target: T6, P2X purinoceptor 3 (Homo sapiens, UniProt P56373); assay: Antagonist activity at human P2X3 receptor expressed in human 1321N1 cells assessed as inhibition of ATP-induced calcium influx preincubated for 30 mins prior to ATP-stimulation by calcium influx assay; format: cell-based
T6 sequence (P56373 whole entry): T2 sequence (whole entry)

P2X purinoceptor 1 = target: T7, P2X purinoceptor 1 (Rattus norvegicus, UniProt P47824); assay: Antagonist activity at P2X1 receptor in rat vas deferens assessed as inhibition of alpha/beta-meATP-induced calcium influx
T7 sequence (P47824 whole entry): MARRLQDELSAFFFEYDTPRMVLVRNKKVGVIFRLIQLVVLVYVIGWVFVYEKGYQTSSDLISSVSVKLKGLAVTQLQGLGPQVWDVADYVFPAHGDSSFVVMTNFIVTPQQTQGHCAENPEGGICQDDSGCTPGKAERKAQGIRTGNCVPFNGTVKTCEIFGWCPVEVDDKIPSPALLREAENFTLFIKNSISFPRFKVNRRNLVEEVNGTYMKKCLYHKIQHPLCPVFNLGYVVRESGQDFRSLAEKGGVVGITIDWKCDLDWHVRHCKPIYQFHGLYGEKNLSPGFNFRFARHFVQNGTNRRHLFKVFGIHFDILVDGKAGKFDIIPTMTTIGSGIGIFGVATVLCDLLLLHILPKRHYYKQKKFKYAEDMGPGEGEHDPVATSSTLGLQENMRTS

[10] = Toxicity in zebrafish assessed as induction of teratogenic developmental toxicity at 10 uM; parameters: species or system Danio rerio; conditions: in vivo
Homo sapiens = species on record: Homo sapiens; assay: Selectivity ratio, ratio of IC50 for human P2X3 receptor expressed in human 1321N1 cells to human P2X7 receptor expressed in HEK293 cells; format: cell-based
MDA-MB-231 [11] = assay: Cytotoxicity against human MDA-MB-231 cells assessed as reduction in cell viability at 2.5 to 10 uM measured after 48 hrs by WST-1 cell viability assay; format: cell-based; conditions: mda-mb-231, 48 h

IC50 (P2X purinoceptor 7 [1]) [nM] | IC50 (P2X purinoceptor 7 [2]) [nM] | IC50 (MDA-MB-231 [3]) [nM] | inhibition [5] [%] | inhibition [6] [%] | inhibition [7] [%] | inhibition [8] [%] | IC50 (P2X purinoceptor 7 [9]) [nM] | IC50 (P2X purinoceptor 3) [nM] | IC50 (P2X purinoceptor 1) [nM] | Compound | inhibition (MDA-MB-231 [4]) | Activity [10] | Ratio IC50 (Homo sapiens) | Activity (MDA-MB-231 [11])
10 to 13 | 0.06 | 8700 | – | – | – | – | – | – | – | O=C(NCC12CC3CC(CC(C3)C1)C2)c1cc(CCCNCCCO)ccc1Cl | Active | – | – | –
– | 43 | – | 3 | 7 | 15 | 16 | 7 | – | – | CS(=O)(=O)c1ccc(C(=O)N2CCC(c3nc4cc(OS(=O)(=O)c5cccc6cnccc56)ccc4[nH]3)CC2)cc1 | inactive | – | – | –
– | 54 | – | – | 5 | 0 | 28 | – | 600 | – | O=C1NC(=O)N(C2CCN(C(=O)c3ccc(Cl)c(C(F)(F)F)c3)CC2)C1Cc1ccc(OS(=O)(=O)c2cccc3cnccc23)cc1 (stereo not drawn) | – | – | – | –
– | – | – | – | – | – | – | – | – | 4680 | Cc1ccc(C(=O)Nc2ccc(S(=O)(=O)O)c3cc(S(=O)(=O)O)cc(S(=O)(=O)O)c23)cc1NC(=O)c1cccc(NC(=O)Nc2cccc(C(=O)Nc3cc(C(=O)Nc4ccc(S(=O)(=O)O)c5cc(S(=O)(=O)O)cc(S(=O)(=O)O)c45)ccc3C)c2)c1 [SURAMIN] | – | – | – | –
– | 1.03 | 3630 | – | 7 | 7 | 22 | 0.49 | 910 | – | CN(C)c1ccc(C(=O)N2CCC(n3cncc3-c3ccc(OS(=O)(=O)c4cccc(C(=O)NC5CC5)c4)cc3)CC2)cc1 | Active | Non-Toxic | 1000 to 7000 | Non-Toxic
